For one data set, the target named is T1, DNA-PK (Homo sapiens, UniProt P78527).
T1 construct: purchased Invitrogen PR9107A
As to the kind of experiment: DNA-PK Assay for Biochemical Enzymatic Inhibition (ADP Glo Kinase assay). The following applies: DNA-PK enzyme, Table 1. In outline:
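Human DNA-PK (25 ng) preincubated 15 min with compounds (ten three-fold dilutions) in HEPES pH 7.5, MgCl2, KCl, calf thymus DNA buffer, then substrate 434.4 μM and ATP 64.4 μM (final) for 60 min at room temperature. ADP-Glo luminescence; percent inhibition fitted by four-parameter regression for IC50.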
Background: ADP-Glo first removes unused ATP, then detects ADP through luciferase.

Data set [1] in a line: Microsomal Stability Assay, mouse liver microsomes. The format is in vitro ADME. The following applies: for microsomal CLint at 0.1 uM: male, CD-1, pH 7.4, mouse liver microsomes 0.1 mg/mL, 0.1 uM compound; for Microsomal Stability Mouse % rem. 60 min: mouse liver microsomes. How it is done:
(§1) Samples were then mixed and centrifuged. Supernatants were used for HPLC-MS/MS analysis. […] Peak areas corresponding to the test compound were recorded.
On the technique in general: Liver microsomes are vesicles of endoplasmic reticulum, rich in cytochrome P450 enzymes.

Data set [2] can be described thus: Microsomal Stability Assay, human liver microsomes. Type of data set: in vitro ADME. The following applies: for microsomal CLint at 0.1 uM: both sexes, pH 7.4, human liver microsomes 0.1 mg/mL, 0.1 uM compound; for Microsomal Stability Human % rem. 60 min: human liver microsomes. Here is the method: as §1

Usually IC50 stands for the concentration at which inhibition is half-maximal. By microsomal CLint is commonly meant the capacity of the preparation to metabolise the compound, expressed as a volume cleared per time. Low readings indicate slow turnover, high ones rapid turnover. Regarding `CN1CCN(C(=O)COc2cnc(N[C@H]3CC[C@@H](Oc4nc(N5CCOCC5)cc5ncccc45)CC3)nc2)CC1` [Compound 62, 1-(4-Methylpiperazin-1-yl)-2-((2-(((1s,4s)-4-((7-morpholino-1,6-naphthyridin-5-yl)oxy)cyclohexyl)amino)pyrimidin-5-yl)oxy)ethan-1-one], the IC50 on DNA-PK was < 0.5 nM. Moreover, in data set [1], the microsomal CLint at 0.1 uM is < 116 µL/min/mg and the “Microsomal Stability Mouse % rem. 60 min” value is listed as “F (% remaining = 25-50%)”. Further, in data set [2], the microsomal CLint at 0.1 uM is < 116 µL/min/mg and the “Microsomal Stability Human % rem. 60 min” value was “G (% remaining = 50-75%)”.
In the case of `O=C(COc1cnc(N[C@H]2CC[C@@H](Oc3nc(N4CCOCC4)cc4ncccc34)CC2)nc1)N1CCNCC1` [Compound 63, 2-((2-(((1s,4s)-4-((7-Morpholino-1,6-naphthyridin-5-yl)oxy)cyclohexyl)amino)pyrimidin-5-yl)oxy)-1-(piperazin-1-yl)ethan-1-one], the IC50 at DNA-PK is < 0.5 nM. For the same compound, in data set [1], the microsomal CLint at 0.1 uM is > 116 µL/min/mg and the “Microsomal Stability Mouse % rem. 60 min” value was “F (% remaining = 25-50%)”. In data set [2], the microsomal CLint at 0.1 uM was < 116 µL/min/mg and the “Microsomal Stability Human % rem. 60 min” value is “H (% remaining = 75-100%)”.
Turning to `CN(C)CCOc1cnc(N[C@H]2CC[C@@H](Oc3nc(N4CCOCC4)cc4ncccc34)CC2)nc1` [Compound 64, 5-(2-(Dimethylamino)ethoxy)-N-((1s,4s)-4-((7-morpholino-1,6-naphthyridin-5-yl)oxy)cyclohexyl)pyrimidin-2-amine], the IC50 on DNA-PK was < 0.5 nM. Further, in data set [1], the microsomal CLint at 0.1 uM is < 116 µL/min/mg and the “Microsomal Stability Mouse % rem. 60 min” value is “G (% remaining = 50-75%)”. Also, in data set [2], the microsomal CLint at 0.1 uM is < 116 µL/min/mg and the “Microsomal Stability Human % rem. 60 min” value is “H (% remaining = 75-100%)”.
`NCCOc1cnc(N[C@H]2CC[C@@H](Oc3nc(N4CCOCC4)cc4ncccc34)CC2)nc1` [Compound 65, 5-(2-Aminoethoxy)-N-((1s,4s)-4-((7-morpholino-1,6-naphthyridin-5-yl)oxy)cyclohexyl)pyrimidin-2-amine]: the IC50 on DNA-PK is < 0.5 nM. Also, in data set [1], the microsomal CLint at 0.1 uM is < 116 µL/min/mg and the “Microsomal Stability Mouse % rem. 60 min” value was “G (% remaining = 50-75%)”. In data set [2], the microsomal CLint at 0.1 uM is > 116 µL/min/mg and the “Microsomal Stability Human % rem. 60 min” value is reported as “G (% remaining = 50-75%)”.
`CC(=O)NCCOc1cnc(N[C@H]2CC[C@@H](Oc3nc(N4CCOCC4)cc4ncccc34)CC2)nc1` [Compound 66]: the IC50 on DNA-PK is 0.5 to 1 nM. In data set [1], the microsomal CLint at 0.1 uM is < 116 µL/min/mg and the “Microsomal Stability Mouse % rem. 60 min” value is given as “G (% remaining = 50-75%)”. Also, in data set [2], the microsomal CLint at 0.1 uM is > 116 µL/min/mg and the “Microsomal Stability Human % rem. 60 min” value is on record as “F (% remaining = 25-50%)”.
Take `c1cnc2cc(N3CCOCC3)nc(O[C@H]3CC[C@@H](Nc4ncc(OCCN5CCOCC5)cn4)CC3)c2c1` [Compound 68, N-((1s,4s)-4-((7-Morpholino-1,6-naphthyridin-5-yl)oxy)cyclohexyl)-5-(2-morpholinoethoxy)pyrimidin-2-amine]: the IC50 at DNA-PK is < 0.5 nM. Further, in data set [1], the microsomal CLint at 0.1 uM is < 116 µL/min/mg and the “Microsomal Stability Mouse % rem. 60 min” value is given as “F (% remaining = 25-50%)”.
On to `O=c1[nH]c2cnc(N[C@H]3CC[C@@H](Oc4nc(N5CCOCC5)cc5ncccc45)CC3)nc2n1C1CCOCC1` [Compound 95, 2-(((1s,4s)-4-((7-Morpholino-1,6-naphthyridin-5-yl)oxy)cyclohexyl)amino)-9-(tetrahydro-2H-pyran-4-yl)-7,9-dihydro-8H-purin-8-one], for which the IC50 at DNA-PK fell in the range of 0.5 to 1 nM.
With `Cn1c(=O)n(C2CCOCC2)c2nc(N[C@H]3CC[C@@H](Oc4nc(N5CCOCC5)cc5ncccc45)CC3)ncc21` [Compound 96, 7-Methyl-2-(((1s,4s)-4-((7-morpholino-1,6-naphthyridin-5-yl)oxy)cyclohexyl)amino)-9-(tetrahydro-2H-pyran-4-yl)-7,9-dihydro-8H-purin-8-one], on DNA-PK, the IC50 is < 0.5 nM.
In the case of `O=C(Cn1c(=O)n(C2CCOCC2)c2nc(N[C@H]3CC[C@@H](Oc4nc(N5CCOCC5)cc5ncccc45)CC3)ncc21)N1CCOCC1` [Compound 98, 2-(((1s,4s)-4-((7-Morpholino-1,6-naphthyridin-5-yl)oxy)cyclohexyl)amino)-7-(2-morpholino-2-oxoethyl)-9-(tetrahydro-2H-pyran-4-yl)-7,9-dihydro-8H-purin-8-one], the IC50 at DNA-PK is < 0.5 nM.
Still for that read-out and setting: then `O=C(Cn1c(=O)n(C2CCOCC2)c2nc(N[C@H]3CC[C@@H](Oc4nc(N5CCOCC5)cc5ncccc45)CC3)ncc21)N1CCC1` [Compound 99, 7-(2-(Azetidin-1-yl)-2-oxoethyl)-2-(((1s,4s)-4-((7-morpholino-1,6-naphthyridin-5-yl)oxy)cyclohexyl)amino)-9-(tetrahydro-2H-pyran-4-yl)-7,9-dihydro-8H-purin-8-one], with < 0.5 nM; and `Cn1c(=O)[nH]c2cnc(N[C@H]3CC[C@@H](Oc4nc(N5CCOCC5)cc5ncccc45)CC3)nc21` [Compound 100, 9-Methyl-2-(((1s,4s)-4-((7-morpholino-1,6-naphthyridin-5-yl)oxy)cyclohexyl)amino)-7,9-dihydro-8H-purin-8-one], with < 0.5 nM; and `Cn1c(=O)n(C)c2nc(N[C@H]3CC[C@@H](Oc4nc(N5CCOCC5)cc5ncccc45)CC3)ncc21` [Compound 101, 7,9-Dimethyl-2-(((1s,4s)-4-((7-morpholino-1,6-naphthyridin-5-yl)oxy)cyclohexyl)amino)-7,9-dihydro-8H-purin-8-one], with < 0.5 nM.
Same read-out and setting: next, `CN(C)C(=O)Cn1c(=O)n(C)c2nc(N[C@H]3CC[C@@H](Oc4nc(N5CCOCC5)cc5ncccc45)CC3)ncc21` [Compound 102, N,N-Dimethyl-2-(9-methyl-2-(((1s,4s)-4-((7-morpholino-1,6-naphthyridin-5-yl)oxy)cyclohexyl)amino)-8-oxo-8,9-dihydro-7H-purin-7-yl)acetamide]: < 0.5 nM.
Regarding `O=C(O)c1cnc2cc(N3CCOCC3)nc(O[C@H]3CC[C@@H](n4ccnc4)CC3)c2c1` [Compound 165, 5-(((1s,4s)-4-(1H-imidazol-1-yl)cyclohexyl)oxy)-7-morpholino-1,6-naphthyridine-3-carboxylic acid], the IC50 on DNA-PK was < 0.5 nM. Further, in data set [1], the microsomal CLint at 0.1 uM was < 116 µL/min/mg and the “Microsomal Stability Mouse % rem. 60 min” value is reported as “H (% remaining = 75-100%)”.
In the case of `O=C(NO)c1cnc2cc(N3CCOCC3)nc(O[C@H]3CC[C@@H](n4ccnc4)CC3)c2c1` [Compound 172, 5-(((1s,4s)-4-(1H-imidazol-1-yl)cyclohexyl)oxy)-N-hydroxy-7-morpholino-1,6-naphthyridine-3-carboxamide], the IC50 on DNA-PK was < 0.5 nM. In data set [1], the microsomal CLint at 0.1 uM was < 116 µL/min/mg and the “Microsomal Stability Mouse % rem. 60 min” value is “G (% remaining = 50-75%)”.
Take `CS(=O)(=O)NC(=O)c1cnc2cc(N3CCOCC3)nc(O[C@H]3CC[C@@H](n4ccnc4)CC3)c2c1` [Compound 175, 5-(((1s,4s)-4-(1H-imidazol-1-yl)cyclohexyl)oxy)-N-(methylsulfonyl)-7-morpholino-1,6-naphthyridine-3-carboxamide]: at DNA-PK, the IC50 lay within 0.5 to 1 nM. Besides, in data set [1], the microsomal CLint at 0.1 uM is < 116 µL/min/mg and the “Microsomal Stability Mouse % rem. 60 min” value is on record as “H (% remaining = 75-100%)”.
On to `O=S(=O)(CF)Nc1cnc2cc(N3CCOCC3)nc(O[C@H]3CC[C@@H](Nc4ncccn4)CC3)c2c1` [Compound 192, 1-fluoro-N-(7-morpholino-5-(((1s,4s)-4-(pyrimidin-2-ylamino)cyclohexyl)oxy)-1,6-naphthyridin-3-yl)methanesulfonamide], for which, on DNA-PK, the IC50 is < 0.5 nM.
Same read-out and setting: next, `O=S(=O)(CC(F)F)Nc1cnc2cc(N3CCOCC3)nc(O[C@H]3CC[C@@H](Nc4ncccn4)CC3)c2c1` [Compound 193, 2,2-difluoro-N-(7-morpholino-5-(((1s,4s)-4-(pyrimidin-2-ylamino)cyclohexyl)oxy)-1,6-naphthyridin-3-yl)ethane-1-sulfonamide]: 0.5 to 1 nM.
Take `CS(=O)(=O)c1cnc2cc(N3CCOCC3)nc(O[C@H]3CC[C@@H](Nc4ncccn4)CC3)c2c1` [Compound 200b, N-((1s,4s)-4-((3-(methylsulfonyl)-7-morpholino-1,6-naphthyridin-5-yl)oxy)cyclohexyl)pyrimidin-2-amine]: the IC50 on DNA-PK is < 0.5 nM.
On to `CS(=O)(=O)c1cnc2cc(N3CCOCC3)nc(O[C@H]3CC[C@@H](Nc4ncc(OCC(=O)N5CCOCC5)cn4)CC3)c2c1` [Compound 204a, 2-((2-(((1s,4s)-4-((3-(methylsulfonyl)-7-morpholino-1,6-naphthyridin-5-yl)oxy)cyclohexyl)amino)pyrimidin-5-yl)oxy)-1-morpholinoethan-1-one], for which the IC50 at DNA-PK fell in the range of 1 to 10 nM.
For the compound `CS(=O)(=O)c1cnc2cc(N3CCOCC3)nc(O[C@H]3CC[C@@H](Nc4ncnc5ccoc45)CC3)c2c1` [Compound 204b, N-((1s,4s)-4-((3-(methylsulfonyl)-7-morpholino-1,6-naphthyridin-5-yl)oxy)cyclohexyl)furo[3,2-d]pyrimidin-4-amine], the IC50 on DNA-PK was < 0.5 nM.
For `CS(=O)(=O)c1cnc2cc(N3CCOCC3)nc(O[C@H]3CC[C@@H](NC(=O)c4ncco4)CC3)c2c1` [Compound 204c, N-((1s,4s)-4-((3-(methylsulfonyl)-7-morpholino-1,6-naphthyridin-5-yl)oxy)cyclohexyl)oxazole-2-carboxamide], the IC50 on DNA-PK was in the range of 1 to 10 nM.
